# PMC11904221 (EMBO Molecular Medicine, 2025)
# Like-named read-outs stand apart in the source and are kept apart here. Where a SMILES comes first, the peptide text is derived from it.
# Assays:
# [1] = for microsomal CLint: liver microsomes
# [2] = mouse
# [3] = Pharmacokinetic profile in mice, LC/MS; format: in vivo, mouse; details: mouse, iv, 100 mg/kg
# Description: Pharmacokinetic profile of APLN-DM in mice
# The aim of the current study was to evaluate pharmacokinetic properties of APLN-DM peptide administrated intravenously (IV) or intraperitoneously (IP) in Balb/C mice. […]
# for the IP group). Development of quantification method was performed using liquid chromatography coupled to mass spectrometry (LC/MS).
# Results: Samples obtained in vivo were analyzed according to quantification-developed method and the peptide was detectable until 15 minutes after administration. Analysis allowed determining that APLN-DM […]
# All animals were divided to three groups of 27 animals, one of 12 animals and one of 3 animals (vehicle) and will receive the corresponding test item according to Table 1. Each animal was weighed and administered at the appropriate volume.
# Concentration ROA Blood Individual animal numbers
# Group No. Treatment Dose Collect
# Table 11 - Group allocation
# Development of analytic method
# Standard range from 0.5 to 100 µM was prepared and analysed for each fragmented ion as previously […]
# Standard curves obtained for each ion are represented in Figure 6.
# Figure 8: Standard curves obtained by quantification of each fragmented ion The best linearity was obtained by quantifying the fragmented ion 785 (z=5).
# Quantification of APLN-DM in samples
# Summary of analytical method development:
# Quantification method was performed according to previous work. In summary, samples were analysed with a LC-MS triple quadripole system (ESI QqQ). The chromatographic system was a UPLC activity (Waters) coupled to a mass spectrometer TSQ Quantum Ultra (Thermo) equipped with triple quadripole analyser and electrospray ionisation (ESI) system. The selected column was Kinetex F5 […] 50x2.1 mm (Phenomenex). The analysis was made by quantifying fragmented ion z=5 (m/z=785) in samples compared […]
# quantitation was previously determined to be 0.5 µM. Samples were analysed after protein precipitation as […]
# In vivo phase samples analysis
# As the stability of peptide is low, even in frozen plasma, it was decided to re-run the in vivo phase for the highest dose and to use freshly prepared samples.
# 26 samples were used for analysis.
# Only samples taken 5 and 10 minutes after peptide administration presented detectable concentrations (see
# Table 9). While 15 min results were on the level of accuracy (linearity threshold values). At a later time […]
# estimated based on the 5 and 10 min measurements.
# Sample ID Area Calculated amount
# [4] = pH 7.4, aqueous buffer
# [5] = mouse, in vivo, ip
# Description: A single intraperitoneal injection on day 1 was followed by a 14-day observation period. Parameters monitored included mortality, morbidity, clinical signs, and body weight. At the study’s end, gross pathology and organ necropsy were conducted. […] Evaluations encompassed clinical observations, body weight, food consumption, hematology, blood chemistry, gross pathology, selected organ necropsy, and weight, and histopathology examinations. Comprehensive study details are in Appendix pharmacological studies-1 and -2. […]
# was assessed in the present study.
# Methods: 4 groups (5 males and 5 females per group) were assigned for this study. In each gender, reference item control groups (1F+1M) received the reference item (Saline Solution, NaCl 0,9%) and 3 treated groups […]
# 4F+4M) mg/kg. All animals were IP dosed and followed daily for 2 weeks (5 days a week). During the study, mortality and general clinical observation, body weight, food consumption, hematology, blood chemistry, gross pathology, selected organ necropsy and weight and histopathology examination of control and high dose groups […]
# dosing of five female and five male mice (Table 1 and Table 2). The choice of the number and the gender of the animals were based on OECD guidelines.
# Study variables and end points […]
# Observations for signs of morbidity and mortality were performed daily. […] The time of death was recorded as precisely as possible. […]
smiles,measurement,setting,value
CSCC[C@H](NC(=O)[C@@H]1CCCN1C(=O)CNC(=O)[C@H](CCCCN)NC(=O)[C@H](Cc1c[nH]cn1)NC(=O)[C@H](CO)NC(=O)[C@H](CC(C)C)NC(=O)[C@H](CCCNC(=N)N)NC(=O)[C@@H]1CCCN1C(=O)[C@H](CCCNC(=N)N)NC(=O)[C@H](CCC(N)=O)NC(=O)[C@H](CO)NC(=O)[C@H](CO)NC(=O)[C@H](Cc1ccccc1)NC(=O)[C@H](CCCCN)NC(=O)[C@H](CO)NC(=O)[C@H](CO)NC(=O)CNC(=O)CNC(=O)[C@H](CCC(N)=O)NC(=O)[C@H](Cc1c[nH]c2ccccc12)NC(=O)[C@@H]1CCCN1C(=O)CNC(=O)[C@@H]1CCCN1C(=O)CNC(=O)[C@H](CC(N)=O)NC(=O)[C@H](CCCNC(=N)N)NC(=O)[C@H](CO)NC(=O)CNC(=O)[C@H](CCCNC(=N)N)NC(=O)[C@@H]1CCCN1C(=O)[C@H](CCC(N)=O)NC(=O)[C@@H](NC(=O)[C@@H](N)CC(C)C)C(C)C)C(=O)N1CCC[C@H]1C(=O)N[C@@H](Cc1ccccc1)C(=O)O [APLN-DM] (H-LVQPRGSRNGPGPWQGGSSKFSSQRPRLSHKGPMPF-OH),clearance category,[1],high
same,"Half-life, 1st",[1]; human,74.4 min
same,"Half-life, 2nd",[1]; human,68.2 min
same,"Half-life, Mean",[1]; human,> 60 min
same,microsomal CLint,[1]; human,< 116 µL/min/mg
same,microsomal CLint,[1],< 116 µL/min/mg
same,"Half-life, 1st",[2],38.7 min
same,"Half-life, 2nd",[2],112.0 min
same,half-life,[2]; liver microsomes,> 60 min
same,microsomal CLint,[2]; liver microsomes,< 116 µL/min/mg
same,level at time molar at 5 min,"[3]; Balb/C, plasma, group 2F, 100 mg/kg IV, 5 min, samples 1-3, no unit printed (standards in µM), read-out: Calculated amount in plasma sample",0.793 µM
same,level at time molar at 10 min,"[3]; Balb/C, plasma, group 2F, 100 mg/kg IV, 10 min, samples 1-3, read-out: Calculated amount in plasma sample",658 nM
same,half-life,"[3]; female, Balb/C mice plasma, LC/MS, estimated from the 5 and 10 min samples, read-out: half-life in vivo in mice",~20 min
same,"% Protein bound, 1st",in vitro,56.8%
same,"% Protein bound, 2nd",in vitro,52.2%
same,"% Recovery, 1st",in vitro,123%
same,"% Recovery, 2nd",in vitro,125%
same,"% Recovery, Mean",in vitro,124%
same,"fraction unbound at 4 h, 1e-05 M","in vitro; human, plasma",0.46
same,solubility thermodynamic,[4],187 µM
same,MTD repeated administrations / highest tested dose found safe,[5],300 mg/kg/day
